Source: patent US20140235626A1, “PYRIDINE DERIVATIVES AND A PHARMACEUTICAL COMPOSITION FOR INHIBITING BACE1 CONTAINING THEM” (SHIONOGI & CO., LTD., priority 2011, published 2014)
Read-outs that look alike come from different tables or passages of the source.

What was measured:
[1] = Solubility test (turbidity, JP-I, JP-II); assay type: physicochemical; settings: kinetic from dmso stock, 2% DMSO, turbidity after 4 hours
Method: A 2-fold dilution series (12 points) of a 10 mM solution of a compound of the present invention in DMSO was added to a medium (JP-I, JP-II) (2%), and solubility was assessed by 3 stages (High; >40 μM, Medium; 3-40 μM, Low; <3 μM) from a turbidity after 4 hours.

Recombinant human BACE-1 = biological target: T1, Recombinant human BACE-1 (Homo sapiens, UniProt P56817); assay: Assay of BACE-1 inhibiting activity; assay type: biochemical; settings: Recombinant human BACE-1 7.4 nmol/L, substrate peptide 18 nmol/L, pH 5.0, 30° C., 3.5 hours; read-out: IC50 value (50% inhibitory concentration against the enzymatic activity)
T1 construct: purchased R&D Systems
T1 sequence (P56817 46-501): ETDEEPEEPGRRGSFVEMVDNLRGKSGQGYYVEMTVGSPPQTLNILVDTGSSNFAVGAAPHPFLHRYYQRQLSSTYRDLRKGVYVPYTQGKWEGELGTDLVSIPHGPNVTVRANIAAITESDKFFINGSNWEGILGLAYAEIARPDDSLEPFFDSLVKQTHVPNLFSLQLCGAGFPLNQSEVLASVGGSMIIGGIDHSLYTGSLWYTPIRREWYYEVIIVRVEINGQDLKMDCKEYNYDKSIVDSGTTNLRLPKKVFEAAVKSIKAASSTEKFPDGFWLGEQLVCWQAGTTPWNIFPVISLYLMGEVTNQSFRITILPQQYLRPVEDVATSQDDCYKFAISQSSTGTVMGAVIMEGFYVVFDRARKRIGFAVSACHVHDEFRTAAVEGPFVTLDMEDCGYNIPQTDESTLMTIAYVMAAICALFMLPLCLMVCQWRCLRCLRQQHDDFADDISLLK
Method: 48.5 μL of substrate peptide solution (Biotin-XSEVNLDAEFRHDSGC-Eu: X=ε-amino-n-capronic acid, Eu=Europium cryptate) was added to each well of 96-hole half-area plate (a black plate: Costar), and after addition of 0.5 μl of the compound of the present invention (DMSO solution) and 1 μl of Recombinant human BACE-1 (R&D Systems), the reaction mixture was incubated at 30° C. for 3.5 hours. The substrate peptide was synthesized by reacting Cryptate TBPCOOH mono SMP (CIS bio international) with Biotin-XSEVNLDAEFRHDSGC (Peptide Institute, Inc.). The final concentrations of the substrate peptide and Recombinant human BACE-1 were adjusted to 18 nmol/L and 7.4 nmol/L, respectively, and the reaction was performed in sodium acetate buffer (50 mmol/L sodium acetate, pH 5.0, 0.008% Triton X-100).
After the incubation for reaction, 50 μl of 8.0 μg/ml Streptavidin-XL665 (CIS bio international) dissolved in phosphate buffer (150 mmol/L K2HPO4—KH2PO4, pH 7:0, 0.008% Triton X-100, 0.8 mol/L KF) was added to each well and left stand at 30° C. for 45 minutes. After then, fluorescence intensity was measured (excitation wavelength: 320 nm, measuring wavelength: 620 nm and 665 nm) using Wallac 1420 multilabel counter (Perkin Elmer life sciences). Enzymatic activity was determined from counting ratio of each wavelength (10,000×Count 665/Count 620) and 50% inhibitory concentration against the enzymatic activity (IC50) was calculated.

[2] = Metabolism stability test; assay type: in vitro ADME; settings: pooled human liver microsomes 0.5 mg protein/mL, 1 mmol/L NADPH, 37° C., 30 minutes; 0 minute = 100%
Method: Using a commercially available pooled human liver microsomes, a compound of the present invention is reacted for a constant time, a remaining rate is calculated by comparing a reacted sample and an unreacted sample, thereby, a degree of metabolism in liver was assessed.
A reaction was performed (oxidative reaction) at 37° C. for 0 minute or 30 minutes in the presence of 1 mmol/L NADPH in 0.2 mL of a buffer (50 mmol/L Tris-HCl pH 7.4, 150 mmol/L potassium chloride, 10 mmol/L magnesium chloride) containing 0.5 mg protein/mL of human liver microsomes. After the reaction, 50 μL of the reaction solution was added to 100 μL of a methanol/acetonitrile=1/1 (v/v), mixed and centrifuged at 3000 rpm for 15 minutes. The compound of the present invention in the supernatant was quantified by LC/MS/MS, and a remaining amount of the compound of the present invention after the reaction was calculated, letting a compound amount at 0 minute reaction time to be 100%.

CYP3A4 = biological target: T2, CYP3A4 (Homo sapiens, UniProt P08684); assay: CYP3A4 fluorescent MBI test; assay type: in vitro ADME; settings: substrate 7-BFC; pre-reaction time 0 or 30 minutes; compound 0.625-20 μmol/L
T2 construct: host or cells: Escherichia coli (printed 'Escherichia cob')
T2 sequence (P08684 whole entry): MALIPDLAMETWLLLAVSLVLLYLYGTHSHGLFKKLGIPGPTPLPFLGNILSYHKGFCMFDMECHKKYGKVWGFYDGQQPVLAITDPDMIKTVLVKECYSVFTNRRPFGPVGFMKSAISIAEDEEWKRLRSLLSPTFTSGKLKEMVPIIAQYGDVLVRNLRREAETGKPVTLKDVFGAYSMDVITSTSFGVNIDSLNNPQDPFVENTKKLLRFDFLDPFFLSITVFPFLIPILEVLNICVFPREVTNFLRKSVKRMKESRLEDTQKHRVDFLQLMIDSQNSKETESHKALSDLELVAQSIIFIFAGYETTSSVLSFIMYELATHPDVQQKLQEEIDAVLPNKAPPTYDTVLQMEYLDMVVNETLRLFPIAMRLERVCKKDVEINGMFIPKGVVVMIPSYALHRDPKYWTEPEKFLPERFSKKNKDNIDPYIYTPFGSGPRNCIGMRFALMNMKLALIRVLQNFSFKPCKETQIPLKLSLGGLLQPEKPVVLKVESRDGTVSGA
Method: The CYP3A4 fluorescent MBI test is a test of investigating enhancement of CYP3A4 inhibition of a compound by a metabolism reaction. 7-benzyloxytrifluoromethylcoumarin (7-BFC) is debenzylated by the CYP3A4 enzyme (enzyme expressed in Escherichia cob) and 7-hydroxytrifluoromethylcoumarin (7-HFC) is produced as a fluorescing metabolite. The test is performed using 7-HFC production reaction as an index.
The reaction conditions are as follows: substrate, 5.6 […], 7-BFC; pre-reaction time, 0 or 30 minutes; reaction time, 15 minutes; reaction temperature, 25° C. […]
An enzyme in a K-Pi buffer (pH 7.4) and a compound of the present invention solution as a pre-reaction solution were added to a 96-well plate at the composition of the pre-reaction. […] Fluorescent values of 7-HFC as a metabolite were measured in each index reaction plate with a fluorescent plate reader (Ex=420 nm, Em=535 nm).
The sample adding DMSO to a reaction system instead of compound of the present invention solution is adopted as a control (100%) because DMSO is used as a solvent to dissolve a compound of the present invention. Remaining activity (%) was calculated at each concentration of the compound of the present invention added as the solution, and IC50 was calculated by reverse-presumption by a logistic model using a concentration and an inhibition rate. […]

[3] = BA test (oral absorption); assay type: in vivo, mouse or SD rat; settings: plasma; from AUCs of oral (1 to 30 mg/kg) and intravenous (0.5 to 10 mg/kg) administration groups
Method: Materials and Methods for Studies on Oral Absorption (1) Animal: mouse or SD rat (2) Breeding conditions: mouse or SD rat is allowed free access to the sterilized tap water and the solid food. […] (6) Evaluation items: blood was collected at the scheduled time, and the plasma concentration of the compound of the present invention was measured by LC/MS/MS (7) Statistical analysis: regarding the transition of the plasma concentration of the compound of the present invention, the area under the plasma concentration-time curve (AUC) was calculated by non-linear least squares program WinNonlin (Registered trademark), and the bioavailability (BA) of the compound of the present invention was calculated from the AUCs of the oral administration group and intravenous administration group

SMILES | IC50 (Recombinant human BACE-1) | also measured
COc1cnc(C(=O)Nc2ccnc([C@]3(C)C=CSC(N)=N3)c2)cn1 [Compound I-47] | – | solubility at 4 h ([1]; pH 1.2, simulated gastric fluid, medium JP-I, read-out: Solubility (3 stages) in JP-I): > 40 µM; solubility at 4 h ([1]; pH 6.8, fassgf or other biorelevant, medium JP-II, read-out: Solubility (3 stages) in JP-II): > 40 µM
NC1=N[C@](CF)(c2cc(NC(=O)c3cnc(C(F)F)cn3)ccn2)CCS1 [Compound I-246] | ≤ 1000 nM | –
C[C@@H]1C[C@@](C)(c2cc(NC(=O)c3cnccn3)ccn2)N=C(N)S1 [Compound I-294] | ≤ 1000 nM | –
CC#Cc1ccc(C(=O)Nc2ccnc([C@]3(C)CCSC(N)=N3)c2)nc1 [Compound I-9] | ≤ 1000 nM | –
CC(F)(F)Oc1ccc(C(=O)Nc2ccnc([C@]3(C)C=CSC(N)=N3)c2)nc1 [Compound I-24] | – | remaining amount of the compound after the reaction [2]: 98%
C=C1C[C@@](C)(c2cc(NC(=O)c3ccc(C(F)F)cn3)ccn2)N=C(N)S1 [Compound I-11] | 48 nM | –
C[C@@]1(c2cc(NC(=O)c3cnc(OC(F)F)cn3)ccn2)C=CSC(N)=N1 [Compound I-2] | 33 nM | –
Cc1cnc(C(=O)Nc2ccnc([C@]3(C)C[C@@H](C)SC(N)=N3)c2)cn1 [Compound I-293] | ≤ 1000 nM | –
C[C@@]1(c2cc(NC(=O)c3ccc(C#N)cn3)ccn2)CCSC(N)=N1 [Compound I-1] | ≤ 1000 nM | CYP3A4 MBI: difference between IC50 values with and without preincubation, positive (+) / negative (−) (CYP3A4): (−) (When the difference was 3 μM or less, this was defined as negative(−))
C[C@@]1(c2cc(NC(=O)c3ccccn3)ccn2)CCSC(N)=N1 [Compound I-272] | ≤ 1000 nM | –
C[C@@H]1C[C@@](C)(c2cc(NC(=O)c3ccccn3)ccn2)N=C(N)S1 [Compound I-273] | ≤ 1000 nM | –
C[C@@]1(c2cc(NC(=O)c3ccc(C#N)cn3)ccn2)C=CSC(N)=N1.O=C(O)C(O)C(O)C(=O)O [Compound I-10] | ≤ 1000 nM | bioavailability [3]: 96.7%
C#Cc1ccc(C(=O)Nc2ccnc([C@]3(C)CCSC(N)=N3)c2)nc1 [Compound I-8] | 78 nM | –
